ChEMBL document CHEMBL5584353, “Design, Synthesis, and Biological Evaluation of Potent EZH2/LSD1 Dual Inhibitors for Prostate Cancer” (J Med Chem, 2024)
Blank lines part the entries; values can stand above or below the compound they belong to.

Legend:
CWR22R [1] = experiment: Growth inhibition of human 22Rv1 cells incubated for 6 to 7 days by MTS assay; format: functional; conditions: time 6-7 day
PC-3 [2] = experiment: Growth inhibition of human PC-3 cells incubated for 6 to 7 days by MTS assay; format: functional; conditions: time 6-7 day
LNCaP [3] = experiment: Growth inhibition of human LNCaP cells incubated for 6 to 7 days by MTS assay; format: functional; conditions: time 6-7 day
[4] = target: Lysine-specific histone demethylase 1A (Homo sapiens, UniProt O60341); experiment: Inhibition of recombinant human LSD1 using Histone H3 as fluorometric substrate incubated for 30 mins by HRP based plate reader assay
CWR22R [5] = experiment: Synergistic growth inhibition of human 22Rv1 cells incubated for 6 to 7 days in presence of ORY1001 by MTS assay; format: functional; conditions: time 6-7 day
CWR22R [6] = experiment: Synergistic growth inhibition of human 22Rv1 cells incubated for 6 to 7 days in presence of TCP by MTS assay; format: functional; conditions: time 6-7 day
PC-3 [7] = experiment: Synergistic growth inhibition of human PC-3 cells incubated for 6 to 7 days in presence of ORY1001 by MTS assay; format: functional; conditions: time 6-7 day
PC-3 [8] = experiment: Synergistic growth inhibition of human PC-3 cells incubated for 6 to 7 days in presence of TCP by MTS assay; format: functional; conditions: time 6-7 day
LNCaP [9] = experiment: Synergistic growth inhibition of human LNCaP cells incubated for 6 to 7 days in presence of ORY1001 by MTS assay; format: functional; conditions: time 6-7 day
LNCaP [10] = experiment: Synergistic growth inhibition of human LNCaP cells incubated for 6 to 7 days in presence of TCP by MTS assay; format: functional; conditions: time 6-7 day
CWR22R [11] = experiment: Induction of apoptosis in human 22Rv1 cells at 10 uM incubated for 5 days by Annexin V-FITC/PI staining based flow cytometric analysis (reference value: 8.97 %); format: functional; conditions: time 5 day
CWR22R [12] = experiment: Synergistic antitumor activity against human 22Rv1 cells xenografted in BALB/c mouse assessed as tumor growth inhibition at 65 mg/kg,ip administrated daily for 31 days in presence of TCP relative to control; conditions: 22Rv1, 744 h, read-out: TGI
[13] = Toxicity in BALB/c mouse xenografted with human 22Rv1 cells assessed as change in body weight at 65 mg/kg,ip administrated daily for 31 days; format: organism-based, CWR22R; conditions: in vivo, 744 h, time 31 day
[14] = Toxicity in BALB/c mouse xenografted with human 22Rv1 cells assessed as change in body weight at 65 mg/kg,ip administrated daily for 31 days in presence of TCP; format: organism-based, CWR22R; conditions: in vivo, 744 h, time 31 day

SMILES: CCN(c1cc(-c2ccc([C@@H]3C[C@H]3NCC(=O)N3CCNCC3)cc2)cc(C(=O)NCc2c(C)cc(C)[nH]c2=O)c1C)C1CCOCC1 (racemic)
GI50 (CWR22R [1]): 18.9 µM
GI50 (PC-3 [2]): > 30 µM
GI50 (LNCaP [3]): 4.09 µM

SMILES: CCN(c1cc(-c2cccc([C@H]3C[C@@H]3NC(=O)OC(C)(C)C)c2)cc(C(=O)NCc2c(C)cc(C)[nH]c2=O)c1C)C1CCOCC1 (racemic)
IC50 [4]: > 3 µM
GI50 (CWR22R [1]): 21.7 µM
GI50 (PC-3 [2]): 19.3 µM
GI50 (LNCaP [3]): 7.22 µM

SMILES: CCN(c1cc(-c2cccc([C@@H]3C[C@H]3N)c2)cc(C(=O)NCc2c(C)cc(C)[nH]c2=O)c1C)C1CCOCC1 (racemic)
IC50 [4]: > 3 µM
GI50 (CWR22R [1]): 26.2 µM
GI50 (PC-3 [2]): 13.5 µM
GI50 (LNCaP [3]): 12.4 µM

SMILES: CCN(c1cc(-c2cccc([C@@H]3C[C@H]3NC3CCOCC3)c2)cc(C(=O)NCc2c(C)cc(C)[nH]c2=O)c1C)C1CCOCC1 (racemic)
GI50 (CWR22R [1]): 10.1 µM
GI50 (PC-3 [2]): > 30 µM
GI50 (LNCaP [3]): 21 µM

SMILES: CCN(c1cc(-c2ccc([C@@H]3C[C@H]3NCC(=O)N3CCOCC3)cc2)cc(C(=O)NCc2c(C)cc(C)[nH]c2=O)c1C)C1CCOCC1 (racemic)
GI50 (CWR22R [1]): 19.7 µM
GI50 (PC-3 [2]): > 30 µM
GI50 (LNCaP [3]): 6.01 µM

SMILES: CCN(c1cc(-c2ccc([C@@H]3C[C@H]3N(Cc3ccccc3)C(=O)OC(C)(C)C)cc2)cc(C(=O)NCc2c(C)cc(C)[nH]c2=O)c1C)C1CCOCC1 (racemic)
IC50 [4]: > 3 µM
GI50 (CWR22R [1]): > 30 µM
GI50 (PC-3 [2]): > 30 µM
GI50 (LNCaP [3]): 13.8 µM

SMILES: CCN(c1cc(-c2ccc([C@@H]3C[C@H]3N(CC3CC3)C(=O)OC(C)(C)C)cc2)cc(C(=O)NCc2c(C)cc(C)[nH]c2=O)c1C)C1CCOCC1 (racemic)
IC50 [4]: > 3 µM
GI50 (CWR22R [1]): 18.8 µM
GI50 (PC-3 [2]): > 30 µM
GI50 (LNCaP [3]): 9.73 µM

SMILES: N[C@@H]1C[C@H]1c1ccccc1.N[C@H]1C[C@@H]1c1ccccc1 (racemic) [TRANYLCYPROMINE]
GI50 (PC-3 [2]): > 30 µM
GI50 (LNCaP [3]): > 30 µM

SMILES: CCN(c1cc(-c2ccc(CN3CCOCC3)cc2)cc(C(=O)NCc2c(C)cc(C)[nH]c2=O)c1C)C1CCOCC1 [TAZEMETOSTAT]
GI50 (CWR22R [1]): 51.9 µM
GI50 (PC-3 [2]): > 30 µM
GI50 (LNCaP [3]): 19.5 µM
GI50 (CWR22R [5]): > 30 µM
GI50 (CWR22R [6]): > 30 µM
GI50 (PC-3 [7]): > 30 µM
GI50 (PC-3 [8]): > 30 µM
GI50 (LNCaP [9]): 12 µM
GI50 (LNCaP [10]): 13 µM
Activity (CWR22R [11]): 17.88%
inhibition in vivo at 65 mg/kg (CWR22R [12]): 28.8%
Activity [13]: Non-Toxic
Activity [14]: Non-Toxic

These reach a lower GI50 (PC-3 [2]). Values come first.

IC50 [4]: > 3 µM
GI50 (PC-3 [2]): 5.13 µM
GI50 (LNCaP [3]): 5.19 µM
SMILES: CCN(c1cc(-c2ccc([C@@H]3C[C@H]3N(Cc3ccccc3F)C(=O)OC(C)(C)C)cc2)cc(C(=O)NCc2c(C)cc(C)[nH]c2=O)c1C)C1CCOCC1 (racemic)
GI50 (CWR22R [1]): 7.13 µM

IC50 [4]: > 3 µM
GI50 (PC-3 [2]): 3.27 µM
GI50 (LNCaP [3]): 3.4 µM
SMILES: CCN(c1cc(-c2ccc([C@@H]3C[C@H]3N(C(=O)OC(C)(C)C)C3CCOCC3)cc2)cc(C(=O)NCc2c(C)cc(C)[nH]c2=O)c1C)C1CCOCC1 (racemic)
GI50 (CWR22R [1]): 8.86 µM

IC50 [4]: > 3 µM
GI50 (PC-3 [2]): 3.68 µM
GI50 (LNCaP [3]): 3.38 µM
SMILES: CCN(c1cc(-c2cccc([C@H]3C[C@@H]3N(CC3CCOCC3)C(=O)OC(C)(C)C)c2)cc(C(=O)NCc2c(C)cc(C)[nH]c2=O)c1C)C1CCOCC1 (racemic)
GI50 (CWR22R [1]): 6.05 µM

GI50 (PC-3 [2]): 12.7 µM
GI50 (LNCaP [3]): 3.42 µM
SMILES: CCN(c1cc(-c2ccc([C@@H]3C[C@H]3NC3CCOCC3)cc2)cc(C(=O)NCc2c(C)cc(C)[nH]c2=O)c1C)C1CCOCC1 (racemic)
GI50 (CWR22R [1]): 4.39 µM

GI50 (PC-3 [2]): 6.41 µM
GI50 (LNCaP [3]): 5.45 µM
SMILES: CCN(c1cc(-c2ccc([C@@H]3C[C@H]3NCc3ccccc3OC)cc2)cc(C(=O)NCc2c(C)cc(C)[nH]c2=O)c1C)C1CCOCC1 (racemic)
GI50 (CWR22R [1]): 4.87 µM

IC50 [4]: > 3 µM
GI50 (PC-3 [2]): 3.87 µM
GI50 (LNCaP [3]): 3.47 µM
SMILES: CCN(c1cc(-c2cccc([C@H]3C[C@@H]3N(C(=O)OC(C)(C)C)C3CCOCC3)c2)cc(C(=O)NCc2c(C)cc(C)[nH]c2=O)c1C)C1CCOCC1 (racemic)
GI50 (CWR22R [1]): 6.92 µM
